Source: patent US20260007681A1, “INDOLE DERIVATIVES AS ESTROGEN RECEPTOR DEGRADERS” (REGENTS OF THE UNIVERSITY OF MICHIGAN, priority 2022, published 2026)

target: ER (Homo sapiens (Human), UniProt P03372); assay: Western blot analysis (Compounds B1-B278); format: cell-based; conditions: ER degradation by traditional Western blot; DC50 classes
In short: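 Compound-treated cells were lysed in RIPA buffer (Tris.HCl pH 7.6, 1% NP-40, deoxycholate, 0.1% SDS) with protease inhibitors; equal protein was resolved on 10% SDS-PAGE, transferred to PVDF and immunoblotted. Band intensities were quantified and normalized to GAPDH.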

Sequence of ER (P03372 whole entry): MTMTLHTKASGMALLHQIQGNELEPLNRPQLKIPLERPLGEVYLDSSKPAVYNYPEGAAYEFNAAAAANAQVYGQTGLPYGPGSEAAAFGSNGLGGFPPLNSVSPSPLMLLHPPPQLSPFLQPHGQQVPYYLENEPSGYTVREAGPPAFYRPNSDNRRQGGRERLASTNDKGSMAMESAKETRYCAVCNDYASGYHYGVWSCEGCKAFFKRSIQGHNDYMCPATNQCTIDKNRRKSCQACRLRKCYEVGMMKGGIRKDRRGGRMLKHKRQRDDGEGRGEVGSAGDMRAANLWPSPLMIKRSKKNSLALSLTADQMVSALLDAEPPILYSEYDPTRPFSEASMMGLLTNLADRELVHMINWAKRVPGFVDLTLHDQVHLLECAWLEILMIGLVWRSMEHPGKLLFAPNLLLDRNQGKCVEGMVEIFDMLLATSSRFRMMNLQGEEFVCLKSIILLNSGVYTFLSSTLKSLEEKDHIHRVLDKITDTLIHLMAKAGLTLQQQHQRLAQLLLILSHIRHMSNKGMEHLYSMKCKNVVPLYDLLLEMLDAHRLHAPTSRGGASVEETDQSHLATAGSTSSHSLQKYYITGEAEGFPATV

For C[C@@H]1Cc2c([nH]c3ccccc23)[C@@H](c2c(F)cc(CN3CCC4(CCC(CN5Cc6cc7c(cc6C5)C(=O)N(C5CCC(=O)NC5=O)C7=O)CC4)CC3)cc2F)N1CC(F)F (stereo partly drawn) [Compound B101, 6-((3-(4-((1R,3R)-2-(2,2-difluoroethyl)-3-methyl-2,3,4,9-tetrahydro-1H-pyrido[3,4-b]indol-1-yl)-3,5-difluorobenzyl)-3-azaspiro[5.5]undecan-9-yl)methyl)-2-(2,6-dioxopiperidin-3-yl)-6,7-dihydropyrrolo[3,4-f]isoindole-1,3(2H,5H)-dione], which “Traditional Western Degradation Potency” value is on record?
Its value is “C (“C”: >100 nM)”.

How did the “Traditional Western Degradation Potency” value turn out when C[C@@H]1Cc2c([nH]c3ccccc23)[C@H](c2c(F)cc(CN3CCC4(CCC(CN5Cc6cc7c(cc6C5)C(=O)N(C5CCC(=O)NC5=O)C7=O)CC4)CC3)cc2F)N1CC(F)F (stereo partly drawn) [Compound B102, 6-((3-(4-((1S,3R)-2-(2,2-difluoroethyl)-3-methyl-2,3,4,9-tetrahydro-1H-pyrido[3,4-b]indol-1-yl)-3,5-difluorobenzyl)-3-azaspiro[5.5]undecan-9-yl)methyl)-2-(2,6-dioxopiperidin-3-yl)-6,7-dihydropyrrolo[3,4-f]isoindole-1,3(2H,5H)-dione] was run?
Its value is “C (“C”: >100 nM)”.

For C[C@@H]1Cc2c([nH]c3ccccc23)[C@@H](c2c(F)cc(CN3CCC4(CCC(C(=O)N5Cc6cc7c(cc6C5)C(=O)N(C5CCC(=O)NC5=O)C7=O)CC4)CC3)cc2F)N1CC(F)F (stereo partly drawn) [Compound B103, 6-(3-(4-((1R,3R)-2-(2,2-difluoroethyl)-3-methyl-2,3,4,9-tetrahydro-1H-pyrido[3,4-b]indol-1-yl)-3,5-difluorobenzyl)-3-azaspiro[5.5]undecane-9-carbonyl)-2-(2,6-dioxopiperidin-3-yl)-6,7-dihydropyrrolo[3,4-f]isoindole-1,3(2H,5H)-dione], which “Traditional Western Degradation Potency” value is on record?
The value was “C (“C”: >100 nM)”.

How did the “Traditional Western Degradation Potency” value turn out when C[C@@H]1Cc2c([nH]c3ccccc23)[C@H](c2c(F)cc(CN3CCC4(CCC(C(=O)N5Cc6cc7c(cc6C5)C(=O)N(C5CCC(=O)NC5=O)C7=O)CC4)CC3)cc2F)N1CC(F)F (stereo partly drawn) [Compound B104, 6-(3-(4-((1S,3R)-2-(2,2-difluoroethyl)-3-methyl-2,3,4,9-tetrahydro-1H-pyrido[3,4-b]indol-1-yl)-3,5-difluorobenzyl)-3-azaspiro[5.5]undecane-9-carbonyl)-2-(2,6-dioxopiperidin-3-yl)-6,7-dihydropyrrolo[3,4-f]isoindole-1,3(2H,5H)-dione] was run?
Its value is “C (“C”: >100 nM)”.

How did the “Traditional Western Degradation Potency” value turn out when C[C@@H]1Cc2c([nH]c3ccccc23)[C@@H](c2c(F)cc(C3CCN(C(=O)[C@H]4CC[C@@H](N5Cc6cc7c(cc6C5)C(=O)N(C5CCC(=O)NC5=O)C7=O)CC4)CC3)cc2F)N1CC(F)F (stereo partly drawn) [Compound B105, 6-((1S,4s)-4-(4-(4-((1R,3R)-2-(2,2-difluoroethyl)-3-methyl-2,3,4,9-tetrahydro-1H-pyrido[3,4-b]indol-1-yl)-3,5-difluorophenyl)piperidine-1-carbonyl)cyclohexyl)-2-(2,6-dioxopiperidin-3-yl)-6,7-dihydropyrrolo[3,4-f]isoindole-1,3(2H,5H)-dione] was run?
The value was “B (“B”: 10-100 nM)”.

C[C@@H]1Cc2c([nH]c3ccccc23)[C@@H](c2c(F)cc(C3CCN(C(=O)[C@H]4CC[C@H](N5Cc6cc7c(cc6C5)C(=O)N(C5CCC(=O)NC5=O)C7=O)CC4)CC3)cc2F)N1CC(F)F (stereo partly drawn) [Compound B106, 6-((1R,4r)-4-(4-(4-((1R,3R)-2-(2,2-difluoroethyl)-3-methyl-2,3,4,9-tetrahydro-1H-pyrido[3,4-b]indol-1-yl)-3,5-difluorophenyl)piperidine-1-carbonyl)cyclohexyl)-2-(2,6-dioxopiperidin-3-yl)-6,7-dihydropyrrolo[3,4-f]isoindole-1,3(2H,5H)-dione] was tested. Which “Traditional Western Degradation Potency” value did it give?
Its value is “A (“A”: <10 nM)”.
